From PubChem BioAssay AID1963858 (Molecular Pharmacology Branch, DTP, NCI, 2024)

System: HOP-62 multicell spheroids with HUVEC/MSC, viability
Experiment: Anticancer human tumor HOP-62 cell line growth inhibition [KRAS2];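 further: viability read after a week of compound exposure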;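 on viability, T/C: 100% = DMSO vehicle-treated spheroids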
Details: for IC50: curve of first compound; for viability, T/C: stronger effect = lower value
Procedure, shortened: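 Combination screen of spheroid viability in tumor-cell co-cultures with endothelial (HUVEC) and mesenchymal stem cell stroma. Each agent was tested in half-log dilutions, topping at clinical Cmax or at 10 microM without a known Cmax.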

[1] = second compound 0.0316 µM, first compound 0.0316 µM
[2] = second compound 0.1 µM, first compound 0.0316 µM
[3] = second compound 0.316 µM, first compound 0.0316 µM
[4] = second compound 1 µM, first compound 0.0316 µM
[5] = second compound 3.16 µM, first compound 0.0316 µM
[6] = second compound 0.0316 µM, first compound 0.1 µM
[7] = second compound 0.0316 µM, first compound 0.316 µM
[8] = second compound 0.0316 µM, first compound 1 µM
[9] = second compound 0.0316 µM, first compound 3.16 µM
[10] = second compound 0.0316 µM, first compound 10 µM
[11] = second compound 0.1 µM, first compound 0.1 µM
[12] = second compound 0.1 µM, first compound 0.316 µM
[13] = second compound 0.1 µM, first compound 1 µM
[14] = second compound 0.1 µM, first compound 3.16 µM
[15] = second compound 0.1 µM, first compound 10 µM
[16] = second compound 0.316 µM, first compound 0.1 µM
[17] = second compound 0.316 µM, first compound 0.316 µM
[18] = second compound 0.316 µM, first compound 1 µM
[19] = second compound 0.316 µM, first compound 3.16 µM
[20] = second compound 0.316 µM, first compound 10 µM
[21] = second compound 1 µM, first compound 0.1 µM
[22] = second compound 1 µM, first compound 0.316 µM
[23] = second compound 1 µM, first compound 1 µM
[24] = second compound 1 µM, first compound 3.16 µM
[25] = second compound 1 µM, first compound 10 µM
[26] = second compound 3.16 µM, first compound 0.1 µM
[27] = second compound 3.16 µM, first compound 0.316 µM
[28] = second compound 3.16 µM, first compound 1 µM
[29] = second compound 3.16 µM, first compound 3.16 µM
[30] = second compound 3.16 µM, first compound 10 µM

SMILES: CC(=O)Nc1cccc(-n2c(=O)n(C3CC3)c(=O)c3c(Nc4ccc(I)cc4F)n(C)c(=O)c(C)c32)c1 + C=CC(=O)N1CCN(c2nc(OCC3CCCN3C)nc3c2CCN(c2cccc4cccc(C)c24)C3)CC1CC#N
- IC50 (second compound 0.0316 µM): 1.49 nM
- IC50 (second compound 0.1 µM): 1.01 nM
- IC50 (second compound 0.316 µM): 0.406 nM
- IC50 (second compound 1 µM): < 0.1 nM
- IC50 (second compound 3.16 µM): < 0.1 nM
- viability, T/C (second compound 0.0316 µM, first compound 0.0001 µM): 83.2%
- viability, T/C (second compound 0.0316 µM, first compound 0.000316 µM): 75%
- viability, T/C (second compound 0.0316 µM, first compound 0.001 µM): 56.2%
- viability, T/C (second compound 0.0316 µM, first compound 0.00316 µM): 38.9%
- viability, T/C (second compound 0.0316 µM, first compound 0.01 µM): 23.4%
- viability, T/C [1]: 25.5%
- viability, T/C (second compound 0.1 µM, first compound 0.0001 µM): 64.8%
- viability, T/C (second compound 0.1 µM, first compound 0.000316 µM): 60.9%
- viability, T/C (second compound 0.1 µM, first compound 0.001 µM): 50.5%
- viability, T/C (second compound 0.1 µM, first compound 0.00316 µM): 27.4%
- viability, T/C (second compound 0.1 µM, first compound 0.01 µM): 19.4%
- viability, T/C [2]: 24.3%
- viability, T/C (second compound 0.316 µM, first compound 0.0001 µM): 52.3%
- viability, T/C (second compound 0.316 µM, first compound 0.000316 µM): 53.6%
- viability, T/C (second compound 0.316 µM, first compound 0.001 µM): 40%
- viability, T/C (second compound 0.316 µM, first compound 0.00316 µM): 18.4%
- viability, T/C (second compound 0.316 µM, first compound 0.01 µM): 15.7%
- viability, T/C [3]: 17.3%
- viability, T/C (second compound 1 µM, first compound 0.0001 µM): 34.4%
- viability, T/C (second compound 1 µM, first compound 0.000316 µM): 28.1%
- viability, T/C (second compound 1 µM, first compound 0.001 µM): 18%
- viability, T/C (second compound 1 µM, first compound 0.00316 µM): 15%
- viability, T/C (second compound 1 µM, first compound 0.01 µM): 12.5%
- viability, T/C [4]: 12.5%
- viability, T/C (second compound 3.16 µM, first compound 0.0001 µM): 18.2%
- viability, T/C (second compound 3.16 µM, first compound 0.000316 µM): 1.3%
- viability, T/C (second compound 3.16 µM, first compound 0.001 µM): 9.7%
- viability, T/C (second compound 3.16 µM, first compound 0.00316 µM): 12.7%
- viability, T/C (second compound 3.16 µM, first compound 0.01 µM): 1.72%
- viability, T/C [5]: 1.33%

SMILES: COC(=O)c1ccc2c(C(=Nc3ccc(N(C)C(=O)CN4CCN(C)CC4)cc3)c3ccccc3)c(O)[nH]c2c1 + C=CC(=O)N1CCN(c2nc(OCC3CCCN3C)nc3c2CCN(c2cccc4cccc(C)c24)C3)CC1CC#N
- IC50 (second compound 0.0316 µM): < 31.6 nM
- IC50 (second compound 0.1 µM): < 31.6 nM
- IC50 (second compound 0.316 µM): < 31.6 nM
- IC50 (second compound 1 µM): < 31.6 nM
- IC50 (second compound 3.16 µM): < 31.6 nM
- viability, T/C [1]: 42.5%
- viability, T/C [6]: 36.9%
- viability, T/C [7]: 28.2%
- viability, T/C [8]: 26.6%
- viability, T/C [9]: 25.1%
- viability, T/C [10]: 7.5%
- viability, T/C [2]: 30%
- viability, T/C [11]: 32.6%
- viability, T/C [12]: 21.7%
- viability, T/C [13]: 23%
- viability, T/C [14]: 20.5%
- viability, T/C [15]: 8.85%
- viability, T/C [3]: 25.7%
- viability, T/C [16]: 21.7%
- viability, T/C [17]: 24.1%
- viability, T/C [18]: 21.7%
- viability, T/C [19]: 20%
- viability, T/C [20]: 1.11%
- viability, T/C [4]: 26.5%
- viability, T/C [21]: 19.2%
- viability, T/C [22]: 19.7%
- viability, T/C [23]: 17.8%
- viability, T/C [24]: 8.02%
- viability, T/C [25]: 0.28%
- viability, T/C [5]: 6.95%
- viability, T/C [26]: 3.11%
- viability, T/C [27]: 20.2%
- viability, T/C [28]: 0.09%
- viability, T/C [29]: 0.09%
- viability, T/C [30]: 0.95%

SMILES: COc1cc(Nc2ncc3c(n2)-c2ccc(Cl)cc2C(c2c(F)cccc2OC)=NC3)ccc1C(=O)O + C=CC(=O)N1CCN(c2nc(OCC3CCCN3C)nc3c2CCN(c2cccc4cccc(C)c24)C3)CC1CC#N
- IC50 (second compound 0.0316 µM): < 31.6 nM
- IC50 (second compound 0.1 µM): < 31.6 nM
- IC50 (second compound 0.316 µM): < 31.6 nM
- IC50 (second compound 1 µM): < 31.6 nM
- IC50 (second compound 3.16 µM): < 31.6 nM
- viability, T/C [1]: 42.7%
- viability, T/C [6]: 35.9%
- viability, T/C [7]: 32.6%
- viability, T/C [8]: 27.1%
- viability, T/C [9]: 19.7%
- viability, T/C [10]: 14.6%
- viability, T/C [2]: 35.7%
- viability, T/C [11]: 28.9%
- viability, T/C [12]: 25.1%
- viability, T/C [13]: 22.3%
- viability, T/C [14]: 17.4%
- viability, T/C [15]: 11.7%
- viability, T/C [3]: 24.4%
- viability, T/C [16]: 19.5%
- viability, T/C [17]: 17%
- viability, T/C [18]: 14.3%
- viability, T/C [19]: 15%
- viability, T/C [20]: 11.3%
- viability, T/C [4]: 20.6%
- viability, T/C [21]: 15.5%
- viability, T/C [22]: 16.6%
- viability, T/C [23]: 16.3%
- viability, T/C [24]: 13.9%
- viability, T/C [25]: 9.29%
- viability, T/C [5]: 10.8%
- viability, T/C [26]: 1.27%
- viability, T/C [27]: 4.55%
- viability, T/C [28]: 7.12%
- viability, T/C [29]: 1.43%
- viability, T/C [30]: 0.67%

SMILES: O=C(c1cc(Cc2n[nH]c(=O)c3ccccc23)ccc1F)N1CCN(C(=O)C2CC2)CC1 + C=CC(=O)N1CCN(c2nc(OCC3CCCN3C)nc3c2CCN(c2cccc4cccc(C)c24)C3)CC1CC#N
- IC50 (second compound 0.0316 µM): 693 nM
- IC50 (second compound 0.1 µM): < 31.6 nM
- IC50 (second compound 0.316 µM): < 31.6 nM
- IC50 (second compound 1 µM): < 31.6 nM
- IC50 (second compound 3.16 µM): < 31.6 nM
- viability, T/C [1]: 76.6%
- viability, T/C [6]: 66.2%
- viability, T/C [7]: 102%
- viability, T/C [8]: 35.3%
- viability, T/C [9]: 34.3%
- viability, T/C [10]: 27.8%
- viability, T/C [2]: 45%
- viability, T/C [11]: 40.5%
- viability, T/C [12]: 33.8%
- viability, T/C [13]: 31.4%
- viability, T/C [14]: 29%
- viability, T/C [15]: 23%
- viability, T/C [3]: 38.1%
- viability, T/C [16]: 37.8%
- viability, T/C [17]: 35.2%
- viability, T/C [18]: 26.4%
- viability, T/C [19]: 20.9%
- viability, T/C [20]: 18.6%
- viability, T/C [4]: 26.4%
- viability, T/C [21]: 22.7%
- viability, T/C [22]: 39.3%
- viability, T/C [23]: 23.1%
- viability, T/C [24]: 21.7%
- viability, T/C [25]: 21.4%
- viability, T/C [5]: 11.3%
- viability, T/C [26]: 1.1%
- viability, T/C [27]: 36.4%
- viability, T/C [28]: 6.37%
- viability, T/C [29]: 8.8%
- viability, T/C [30]: 1.75%
